According to the METLIN SMRT retention time set (Domingo-Almenara et al. 2019):

Assay: gradient 5% acetonitrile 3 min, to 50% in 2 min, to 85% in 15 min, held 3 min, 100 µL/min
Details: column: Zorbax Extend-C18 2.1 x 50 mm; eluents: water / acetonitrile, 0.1% formic acid
Summary of the method: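 Pure standards were run in mixtures of ~100 molecules by HPLC coupled to a quadrupole time-of-flight mass spectrometer. The column was a Zorbax Extend-C18 (2.1 × 50 mm, 1.8 μm) at 100 μL/min, with water and acetonitrile each containing 0.1% formic acid, in positive and negative ionization mode. Dead and dwell volumes were 40 μL and 900 μL. Retention time was taken from computationally picked adduct peaks, each manually inspected, with data collected over 3 months.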

Compound | RP-LC retention time
CCOCC(=O)Nc1ccc2c(c1)Sc1ncccc1C(=O)N2C(C)C | 764 s
CC(C)C(=O)Nc1ccc(C(=O)NCCNS(=O)(=O)N(C)C)cc1 | 631 s
Cc1ccc(CNC(=O)C2(C)CCCN(C(=O)Nc3ccc(C)c(F)c3)C2)cc1 (stereo not given) | 857 s
CN1c2ccccc2C(=O)NC12CCN(C(=O)c1ccccc1)CC2 | 700 s
Cc1cc(C2CCCN2C(=O)c2c(F)cccc2Cl)on1 (stereo not given) | 773 s
O=C(Cc1cccs1)Nc1ccc(-c2nnc3n2CCCC3)cc1 | 640 s
CC(O)(CNC(=O)c1cnc2ccccc2n1)c1ccco1 (stereo not given) | 675 s
O=C(Cn1c(=O)nc(-c2ccccc2)c2cc(Cl)ccc21)N1CCN(c2ccccn2)CC1 | 646 s
CC1=NS(=O)(=O)N(C)C=C1C(=O)OCCC(C)C | 966 s
O=C(Nc1ccc(-c2nnc3n2CCCC3)cc1)c1ccc2ccccc2n1 | 773 s
COCc1noc([C@@H]2CC(F)(F)CN2S(=O)(=O)c2ccccc2)n1 | 850 s
O=C(NCc1ccc(F)cc1Cl)C1CCCN(c2ncnc3nn(-c4ccc(F)cc4)cc23)C1 (stereo not given) | 723 s
COc1cccc(CC(=O)N2CCc3nc(-c4ccc(Cl)cc4)ncc3C2)c1 | 1050 s
COc1ccccc1CNC(=O)C1CCCN(c2nnc3cccc(C)n23)C1 (stereo not given) | 688 s
CCCn1ccc2sc(C)c(C(=O)NCc3cccc(OCC)c3)c2c1=O | 939 s
Cc1c(S(=O)(=O)N2CCOCC2)cc(C(=O)N2CCCC2)n1C | 658 s
O=C(OCc1cc(-c2cccs2)on1)c1cc(-c2ccco2)n[nH]1 | 786 s
CCCn1cc(C(=O)Nc2ccc(F)cc2C)c2cccnc21 | 882 s
CN1C(=O)c2cccn2CC1C(=O)NCc1ccc2c(c1)OCO2 (stereo not given) | 657 s
O=C(c1ccoc1)N1CCC(N2CCc3ccccc32)CC1 | 830 s
Cc1ccc(-c2ncc(C(=O)NCc3ccccc3C)c(-c3ccncc3)n2)cc1 | 909 s
Cc1ccc(CNC(=O)c2ccc(-c3cncnc3)nc2)o1 | 678 s
Cc1cc(=O)n(CC(=O)NCc2ccc(F)cc2Cl)c(N)n1 | 861 s

Compound | RP-LC retention time
CCOc1cccc2cc(C(=O)Nc3nc(-c4ccccc4)cs3)c(=N)oc12 | 987 s
CCOc1ccc(CCNC(=O)c2c(C)oc3c2C2=NCCN2C=N3)cc1OCC | 651 s
Cc1ccc(C)c(NC(=O)NCC(c2cccnc2)c2cn(C)c3ccccc23)c1 (stereo not given) | 733 s
CCCCCCCC1(C)NC(=O)NC1=O (stereo not given) | 817 s
CCC(=O)N1CCC(COc2ccc(C(=O)NC(C)C)cc2)CC1 | 719 s
Cc1ccc(C)c(S(=O)(=O)N2[C@H]3CC[C@@H]2c2cnc(-c4ccc(F)cc4)nc2C3)c1 | 1270 s
CN(C)c1nc(Nc2ccc(F)cc2)c2cnn(C)c2n1 | 781 s
CCSc1nc2ccc(NS(=O)(=O)c3ccc(F)cc3)cc2s1 | 1010 s
Cn1nc(-c2cccc(NC(=O)c3ccc4ccccc4n3)c2)ccc1=O | 829 s
CCOc1ccccc1-n1ccn(Cc2nc(-c3ccc(Cl)cc3)no2)c(=O)c1=O | 938 s
CCn1ccc(C(=O)NCC23CCC=C2N(CC2CC2)C(=O)CC3)n1 (stereo not given) | 770 s
COc1cc(C2OC(c3ccc(Br)cc3)=NN2C(C)=O)ccc1OC(C)=O (stereo not given) | 1000 s
CS(=O)(=O)N(Cc1ccncc1)C1CN(C(=O)c2ccc3ncccc3c2)C1 | 698 s
CCOc1ccc(-c2cn3ccn(-c4ccc(C)c(C)c4)c(=O)c3n2)cc1 | 949 s
O=C(c1c(F)cccc1F)N(CC1CCOC1)C1CC1 (stereo not given) | 769 s
CCc1nc(-c2nnn(-c3ccc(C)cc3)c2C)no1 | 945 s
Cc1ccc(-n2nc(N3CCCC(C(=O)NCc4ccccc4)C3)ccc2=O)cc1Cl (stereo not given) | 901 s
Cc1ccc(CNC(=O)Cn2c(=O)c(S(=O)(=O)c3ccccc3)cc3ccccc32)cc1 | 900 s
COc1ccc(-n2nnc(C(=O)O)c2-c2ccccn2)cc1 | 654 s
CCc1ccc(-c2noc(Cn3c(=O)n(-c4ccccc4C)c(=O)c4sccc43)n2)cc1 | 1140 s
Cc1cc(=O)n(CC(=O)Nc2ccccc2F)c(N2CCOCC2)n1 | 643 s
O=C(Cn1ccn2nc(-c3ccccc3)c(CO)c2c1=O)Nc1ccc2c(c1)CCC2 | 906 s
O=C(Nc1nc(-c2ccccc2)c(-c2ccccc2)s1)c1ccc(Br)s1 | 1460 s

Compound | RP-LC retention time
COc1c(C(=O)Nc2ccc(N3CCOCC3)cc2)sc2ccc(Cl)cc12 | 1110 s
Cc1cc(C(=O)N(C)C2CCc3nnc(C)n3CC2)c(C)n1Cc1ccco1 (stereo not given) | 654 s
Cc1cnc(C2CC2)n1C1CCN(S(=O)(=O)c2ccc(C#N)cc2)CC1 | 660 s
CN(C)c1cc2c(cc1NC(=O)C1CC1)n(C)c(=O)c(=O)n2C | 608 s
CCc1ccc(NC(=O)C2CCN(S(C)(=O)=O)c3cc(C)ccc3O2)cc1 (stereo not given) | 998 s
O=S(=O)(NCc1cccnc1-c1ccc(F)cc1)c1ccc(F)cc1 | 737 s
CCCS(=O)(=O)N(C)C1CCc2nn(Cc3ccccc3)c(=O)n2CC1 (stereo not given) | 755 s
Cc1ccc(-c2cn(CC(=O)N3CCN(c4cccc(C)c4)CC3)c(=O)o2)cc1 | 1020 s
CCc1ccccc1NC(=O)C1CC(=O)N(c2ccc3c(c2)CCN3C(C)=O)C1 (stereo not given) | 698 s
Cc1noc(C)c1CNC(=O)Cc1cccc(Cl)c1 | 742 s
COc1ccc(-c2c(C)noc2NC(C)=O)cc1S(=O)(=O)Nc1ccc(Cl)cc1C | 820 s
COc1ccc(OC)c(CNC(=O)C2CCCN(c3nccnc3Sc3ccc(C)cc3)C2)c1 (stereo not given) | 1070 s
O=C(CCNc1c(-c2cccc(F)c2)nc2cnccn12)N1CCCC1 | 670 s
CC(C)(C)NC(=O)N1CCC(OC2CCN(Cc3ccccc3)CC2)CC1 | 625 s
CCOC(=O)C1CCN(c2ncnc3c2cnn3-c2ccccc2)CC1 | 944 s
O=C(c1csc(S(=O)(=O)N2CCC(C(=O)N3CCOCC3)CC2)c1)N1CCOCC1 | 620 s
Cc1ccc(OCC(=O)Nc2cc3[nH]c(=O)[nH]c3cc2C)cc1 | 698 s
COc1ccc(-c2nc3cnccn3c2Nc2ccc(C(C)C)cc2)cc1 | 1040 s
CC(C)CNC(=O)c1c2c(nc3ccccc13)CCCC2 | 639 s
O=C(N[C@H]1C[C@@H]2C[C@H]1CN2S(=O)(=O)c1ccc2c(c1)CCC2)c1cccs1 | 943 s
COCCc1noc(COC2CCCN(C(=O)c3ccoc3)C2)n1 (stereo not given) | 668 s
Cc1cc(C)c(S(=O)(=O)N2CC(F)(F)C[C@H]2COc2cccnc2)cc1C | 817 s
CC(C)CNC(=O)c1cn(-c2ccc(-c3nc(C(C)(C)C)no3)cn2)cn1 | 1020 s

Compound | RP-LC retention time
CCOC(=O)Cc1csc(NC(=O)Cn2nc3c(cc2=O)CCCCC3)n1 | 769 s
CCc1cccc(C)c1NC(=O)Cn1c(N(C)Cc2ccccc2)nc(C)cc1=O | 857 s
O=C(NCCSCc1ccco1)c1cc(-c2cccnc2)nc2ccccc12 | 738 s
Cc1cnc(CNC(=O)c2c(=O)c3ccc(N4CCCN(C)CC4)nc3n3c2sc2ccccc23)cn1 | 681 s
COc1ccccc1-c1nnc(-c2cc(S(=O)(=O)N3CCCC3)ccc2Cl)o1 | 951 s
CCN1C(=O)COc2ccc(-c3csc(NC(=O)c4cccs4)n3)cc21 | 940 s
Cc1ccc(F)c(NC(=O)C(C)C2CCN(C(=O)Nc3ccc(Cl)cc3)CC2)c1 (stereo not given) | 968 s
Cc1cccc(NC(=O)Cc2nnc(-c3cnccn3)o2)c1C | 678 s
CC1(C(=O)NCc2ccc(F)cc2)CCCN(C(=O)Nc2cccc(Br)c2)C1 (stereo not given) | 1030 s
Cc1ccccc1-c1noc(CN2N=NC3C(=O)N(c4cccc(Cl)c4)C(=O)C32)n1 (stereo not given) | 996 s
O=C([C@@H]1C[C@H](F)CN1S(=O)(=O)c1ccccc1F)N1CCc2ccccc2C1 | 887 s
COc1cc(Cl)ccc1C(=O)N1CCCC1c1nc(-c2ccccc2)no1 (stereo not given) | 1070 s
CCCn1cnc2ccc(-c3noc(C(C)NC(=O)c4ccco4)n3)cc21 (stereo not given) | 584 s
CCN1C(=O)c2ccccc2Oc2ccc(C(=O)NC3CCCCCC3)cc21 | 1050 s
Cc1ccc(S(=O)(=O)N2CCOCC2)cc1-c1nnc(-c2ccccc2Cl)o1 | 951 s
CCN1C(=O)C(CC(=O)NC(C)C)Sc2ncccc21 (stereo not given) | 655 s
Cc1nn(CC(=O)NCCCN2CCCCC2)c(=O)c2nc(-c3ccccc3)sc12 | 627 s
O=C(C1CCN(S(=O)(=O)c2cc(-c3noc(C4CCC4)n3)cs2)CC1)N1CCOCC1 | 863 s
O=C(NC1CC1)c1cccnc1N1CCSCC1 | 623 s
CN(C)S(=O)(=O)N(CC(=O)Nc1cc(C(F)(F)F)ccc1Cl)c1ccccc1 | 1090 s
Cn1cc(-c2cc3n(n2)CCC(=O)N3CC(=O)NC2CCCCCC2)c2ccccc21 | 856 s
